Data set [1] has as its target Glycogen synthase kinase-3 beta (Homo sapiens, UniProt P49841). Kind of data set: Inhibition of recombinant human GSK3beta […] assessed as reduction in human muscle glycogen synthase type 1 fragment phosphorylation using YRRAAVPPSPSLSRHSSPHQ(pS)EDE as substrate in presence of ATP incubated for 60 mins by ADP-Glo kinase assay.
The species named for data set [2] is Homo sapiens. Kind of data set: Antiplatelet activity in platelet rich plasma (unknown origin) assessed as inhibition of collagen-induced platelet aggregation incubated for 5 mins by aggregometer analysis. It counts as functional.
In the next data set the test system is Peritoneal macrophage. Kind of data set: (§1) Cytotoxicity against mouse Peritoneal macrophages assessed as LDH release by LDH assay. The class given is toxicity, cell-based. Particulars: peritoneal macrophage. For orientation: LDH in the medium is a marker of cell lysis.
For data set [3], the species on record is Homo sapiens. Kind of data set: Antiplatelet activity in platelet rich plasma (unknown origin) assessed as inhibition of ADP-induced platelet aggregation incubated for 5 mins by aggregometer analysis. It counts as functional.
For data set [4], the species on record is Homo sapiens. Kind of data set: cells. As to conditions: Platelet, Plasma, 5 min, read-out: INH.
Description: Antiplatelet activity in platelet rich plasma (unknown origin) assessed as inhibition of ADP-induced platelet aggregation at 100 uM incubated for 5 mins by aggregometer analysis
The species entered for data set [5] is Homo sapiens. Kind of data set: cells. Particulars: Platelet, Plasma, 5 min, read-out: INH. The source holds these as a separate data set.
Description: Antiplatelet activity in platelet rich plasma (unknown origin) assessed as inhibition of ADP-induced platelet aggregation at 1 uM incubated for 5 mins by aggregometer analysis
The species entered for data set [6] is Homo sapiens. Kind of data set: cells. As to conditions: Platelet, Plasma, 5 min, read-out: INH. The source holds these as a separate data set.
Description: Antiplatelet activity in platelet rich plasma (unknown origin) assessed as inhibition of ADP-induced platelet aggregation at 10 uM incubated for 5 mins by aggregometer analysis
A short description of data set [7]: as §1. Particulars: peritoneal macrophages. The class given is toxicity, cell-based, Peritoneal macrophage.
Another data set concerns Rattus norvegicus. Kind of data set: Antithrombotic activity FeCl3-induced carotid artery thrombosis rat model assessed as prolongation of artery occlusion time pretreated dosed IG for 2 hrs followed by 50% FeCl3 application. It counts as functional. As to conditions: po.

From ChEMBL document CHEMBL5257093, “3-Arylidene-2-oxindoles as GSK3β inhibitors and anti-thrombotic agents” (Bioorg Med Chem Lett, 2023) come the findings set out here.

The structures appear in SMILES notation. Bounds are passed on as bounds.

Glycogen synthase kinase-3 beta, sequence (P49841 whole entry, the tested form may be a part): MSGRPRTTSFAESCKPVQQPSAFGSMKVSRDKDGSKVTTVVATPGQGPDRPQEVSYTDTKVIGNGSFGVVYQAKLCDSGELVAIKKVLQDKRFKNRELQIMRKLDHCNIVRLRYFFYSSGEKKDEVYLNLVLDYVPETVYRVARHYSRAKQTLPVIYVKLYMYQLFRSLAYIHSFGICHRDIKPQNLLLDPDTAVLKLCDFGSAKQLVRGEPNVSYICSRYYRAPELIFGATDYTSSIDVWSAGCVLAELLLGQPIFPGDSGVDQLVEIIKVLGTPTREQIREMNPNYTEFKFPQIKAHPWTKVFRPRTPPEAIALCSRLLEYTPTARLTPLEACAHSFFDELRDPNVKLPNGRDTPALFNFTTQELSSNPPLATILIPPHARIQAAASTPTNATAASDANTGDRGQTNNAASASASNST

Consider `O=C1Nc2ccccc2/C1=C\c1ccc(O)cc1`, for which, in data set [1], the IC50 (as a rule, the concentration at which inhibition is half-maximal) was more than 50 µM.

For the molecule `O=C1Nc2ccccc2C12CC2c1ccccn1` (stereo not given), the concentration for half-maximal inhibition (IC50) in the data set filed under Homo sapiens [2] (read-out: IC50) came to 37 µM; in the data set filed under Homo sapiens [3] (read-out: IC50), 8.9 µM. In addition, the CC50 (in general, the concentration that lowers cell viability or growth by half) in the data set on Peritoneal macrophage was more than 100 µM.

For the molecule `Nc1ccc(CC2C(=O)Nc3ccccc32)cc1` (stereo not given), in [1], the IC50 was found to be 50 µM.

`Cc1ccc(C(=O)CC2(O)C(=O)Nc3ccc(NC(=O)c4ccccc4)cc32)cc1` (stereo not given): in data set [1], the IC50 is 1.72 µM.

Consider `O=C1Nc2ccc([N+](=O)[O-])cc2/C1=C\c1cccnc1`, for which the IC50 in data set [1] was found to be 20 µM.

Turning to `O=C1Nc2ccc(NC(=O)c3ccccc3)cc2/C1=C\c1ccc(O)cc1`, the IC50 is 46.7 µM in the data set listed under Homo sapiens [2] (read-out: IC50) and 18.5 µM in the data set listed under Homo sapiens [3] (read-out: IC50). Moreover, the CC50 in the data set on Peritoneal macrophage was more than 100 µM. Moreover, the inhibition at 100 µM in the data set filed under Homo sapiens [4] is 72.3%. For the same molecule, the inhibition at 1 µM in the data set listed under Homo sapiens [5] was 19.3%. Further, the inhibition at 10 µM in the data set filed under Homo sapiens [6] came to 37.2%.

Consider `COCC(=O)c1[nH]ncc1/C=C1\C(=O)Nc2ccccc21`, for which the IC50 in data set [1] was found to be 6.72 µM.

`CC(=O)Nc1ccc2c(c1)/C(=C\c1cccnc1)C(=O)N2`: in data set [1], the IC50 was more than 50 µM.

Turning to `CN1C(=O)/C(=C/c2ccccn2)c2ccccc21`, the IC50 in data set [1] is more than 50 µM.

Regarding `COC(=O)Nc1ccc2c(c1)/C(=C\c1ccc([N+](=O)[O-])cc1)C(=O)N2`, the IC50 in data set [1] amounted to 0.348 µM.

For the molecule `Cn1cc(/C=C2/C(=O)Nc3ccccc32)cn1`, in [1], the IC50 is 13.5 µM.

Take `CCOC(=O)c1[nH]ncc1/C=C1\C(=O)Nc2ccc([N+](=O)[O-])cc21`: the IC50 in data set [1] stood at 1.77 µM.

On to `Nc1ccc2c(c1)C(Cc1ccccn1)C(=O)N2` (stereo not given), for which the IC50 in [1] was more than 50 µM.

Take `COC(=O)Nc1ccc2c(c1)/C(=C\c1ccc(O)cc1)C(=O)N2`: the values for the IC50 in the data set listed under Homo sapiens [2] (read-out: IC50) and in the data set listed under Homo sapiens [3] (read-out: IC50) were more than 100 µM and 13.5 µM, respectively. Further, the CC50 with Peritoneal macrophage was more than 100 µM.

For the molecule `O=C1Nc2ccccc2C1Cc1cccnc1` (stereo not given), the IC50 in the data set listed under Homo sapiens [2] (read-out: IC50) is 3 µM; in data set [1], 0.0042 µM. For the same molecule, the CC50 in data set [7] was more than 100 µM. The ED50 (commonly the dose at which the effect has come halfway, by size or by number of responders) in the data set with Rattus norvegicus worked out at 7.3 mg/kg. The inhibition at 100 µM in the data set listed under Homo sapiens [4] was 75.6%. In addition, the inhibition at 1 µM in the data set listed under Homo sapiens [5] was found to be 26.5%. In addition, the inhibition at 10 µM in the data set filed under Homo sapiens [6] came out at 55.6%.

For `CC(=O)Nc1ccc2c(c1)/C(=C\c1ccc(O)cc1)C(=O)N2`, in data set [1], the IC50 is 34.4 µM.

With `Cc1n[nH]cc1/C=C1/C(=O)Nc2ccccc21`, the IC50 in [1] was 5.68 µM.

Take `CC(=O)Oc1ccccc1C(=O)O` [ASPIRIN]: the results for the IC50 in the data set listed under Homo sapiens [2] and in the data set filed under Homo sapiens [3] were 4.5 µM and 81 µM, respectively. Besides, the ED50 with Rattus norvegicus was found to be 137 mg/kg.
